Data: US20250320193A1, “OXOISOINDOLINYL SUBSTITUTED PIPERIDINEDIONE DERIVATIVE AND USE THEREOF” (GLUETACS THERAPEUTICS (SHANGHAI) CO., LTD., priority 2022, published 2025)
Read-outs that look alike come from different tables or passages of the source.

Key:
[1] = target: human Cereblon WT GST-tagged protein (Homo sapiens (Human), UniProt Q96SW2); test: CRBN-binding affinity, HTRF (CEREBLON BINDING kit, CISBIO); conditions: HTRF inhibitory activity
Method in brief: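 HTRF competition format: test compound displaces Thalidomide-Red from GST-tagged human Cereblon WT, detected with a Eu-labelled anti-GST antibody. Percent CRBN binding inhibition was derived from the 620 nm signal, normalized to solvent-control and protein-free blank wells.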

[2] = target: IKZF1 (Homo sapiens (Human), UniProt Q13422+Q96SW2); test: Western blot, substrate protein expression in hPBMC: IKZF1; format: cell-based; conditions: hPBMC, compound 500 nM, 24 hours, Western blot
Chain of IKZF1 (Q13422 whole entry): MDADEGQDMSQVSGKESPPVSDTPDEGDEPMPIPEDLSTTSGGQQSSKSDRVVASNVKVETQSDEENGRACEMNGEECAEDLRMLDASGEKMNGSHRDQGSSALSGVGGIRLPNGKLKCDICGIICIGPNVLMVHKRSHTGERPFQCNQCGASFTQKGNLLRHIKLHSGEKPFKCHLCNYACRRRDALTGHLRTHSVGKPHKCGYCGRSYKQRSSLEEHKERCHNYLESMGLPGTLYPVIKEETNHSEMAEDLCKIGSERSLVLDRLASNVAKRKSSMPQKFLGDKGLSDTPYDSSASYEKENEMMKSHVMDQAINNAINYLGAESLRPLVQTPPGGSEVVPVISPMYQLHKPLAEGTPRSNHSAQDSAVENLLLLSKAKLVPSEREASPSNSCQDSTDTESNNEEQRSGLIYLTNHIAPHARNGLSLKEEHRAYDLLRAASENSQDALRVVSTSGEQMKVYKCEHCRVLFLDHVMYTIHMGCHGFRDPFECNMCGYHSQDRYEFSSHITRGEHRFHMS
Chain of IKZF1 (Q96SW2 whole entry): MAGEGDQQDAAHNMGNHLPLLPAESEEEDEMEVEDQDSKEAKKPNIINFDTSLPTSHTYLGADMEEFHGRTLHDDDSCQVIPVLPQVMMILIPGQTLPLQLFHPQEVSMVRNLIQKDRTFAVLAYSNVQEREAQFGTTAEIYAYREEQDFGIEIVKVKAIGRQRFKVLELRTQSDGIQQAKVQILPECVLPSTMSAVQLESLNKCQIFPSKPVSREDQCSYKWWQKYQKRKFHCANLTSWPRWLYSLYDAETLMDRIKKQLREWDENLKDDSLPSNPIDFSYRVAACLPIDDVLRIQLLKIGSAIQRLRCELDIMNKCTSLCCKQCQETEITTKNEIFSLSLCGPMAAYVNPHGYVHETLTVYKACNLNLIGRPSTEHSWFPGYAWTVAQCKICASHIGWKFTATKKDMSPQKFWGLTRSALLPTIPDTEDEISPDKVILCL
Chain of IKZF1 (Q16531 whole entry partner): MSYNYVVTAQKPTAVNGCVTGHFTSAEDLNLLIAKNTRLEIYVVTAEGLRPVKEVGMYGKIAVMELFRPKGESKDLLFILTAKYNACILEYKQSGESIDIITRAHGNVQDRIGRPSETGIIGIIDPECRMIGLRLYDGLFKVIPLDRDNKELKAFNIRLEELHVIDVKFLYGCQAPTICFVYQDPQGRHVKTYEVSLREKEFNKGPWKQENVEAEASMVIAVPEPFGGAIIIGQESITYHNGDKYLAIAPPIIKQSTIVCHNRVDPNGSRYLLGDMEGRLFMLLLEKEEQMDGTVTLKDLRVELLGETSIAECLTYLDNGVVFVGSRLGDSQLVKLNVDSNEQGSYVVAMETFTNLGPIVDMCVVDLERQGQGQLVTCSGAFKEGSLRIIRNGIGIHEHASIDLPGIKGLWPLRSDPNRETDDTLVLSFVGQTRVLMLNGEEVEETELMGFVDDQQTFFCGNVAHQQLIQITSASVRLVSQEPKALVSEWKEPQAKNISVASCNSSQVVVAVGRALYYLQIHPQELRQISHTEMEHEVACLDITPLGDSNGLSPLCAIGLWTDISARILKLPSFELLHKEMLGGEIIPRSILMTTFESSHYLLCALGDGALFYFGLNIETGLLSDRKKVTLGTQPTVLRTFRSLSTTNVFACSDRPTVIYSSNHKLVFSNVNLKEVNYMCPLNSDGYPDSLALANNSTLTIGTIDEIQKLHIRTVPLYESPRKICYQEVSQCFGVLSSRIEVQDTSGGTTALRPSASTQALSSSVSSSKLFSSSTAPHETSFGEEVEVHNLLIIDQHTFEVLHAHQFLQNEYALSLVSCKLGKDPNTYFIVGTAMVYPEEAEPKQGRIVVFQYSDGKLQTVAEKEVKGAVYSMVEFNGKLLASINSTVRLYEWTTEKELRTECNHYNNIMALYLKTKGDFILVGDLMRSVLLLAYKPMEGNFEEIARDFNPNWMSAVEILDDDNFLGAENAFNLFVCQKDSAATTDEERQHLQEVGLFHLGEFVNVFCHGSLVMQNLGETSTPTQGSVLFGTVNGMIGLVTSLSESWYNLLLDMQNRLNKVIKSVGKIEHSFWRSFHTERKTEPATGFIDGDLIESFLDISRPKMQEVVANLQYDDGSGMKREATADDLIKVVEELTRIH
Method in brief: (§1)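 hPBMC, 1×10^6 cells/mL, 24 h compound exposure; RIPA lysis, BCA protein assay, SDS-PAGE, NC membrane immunoblot. Densitometry vs internal control → % protein remaining; degradation % = 100% − remaining; DC50 = conc. at 50% of DMSO band signal.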

[3] = target: IKZF3 (Homo sapiens (Human), UniProt Q96SW2+Q9UKT9); test: Western blot, substrate protein expression in hPBMC: IKZF3; format: cell-based; conditions: hPBMC, compound 500 nM, 24 hours, Western blot
Chain of IKZF3 (Q9UKT9 whole entry): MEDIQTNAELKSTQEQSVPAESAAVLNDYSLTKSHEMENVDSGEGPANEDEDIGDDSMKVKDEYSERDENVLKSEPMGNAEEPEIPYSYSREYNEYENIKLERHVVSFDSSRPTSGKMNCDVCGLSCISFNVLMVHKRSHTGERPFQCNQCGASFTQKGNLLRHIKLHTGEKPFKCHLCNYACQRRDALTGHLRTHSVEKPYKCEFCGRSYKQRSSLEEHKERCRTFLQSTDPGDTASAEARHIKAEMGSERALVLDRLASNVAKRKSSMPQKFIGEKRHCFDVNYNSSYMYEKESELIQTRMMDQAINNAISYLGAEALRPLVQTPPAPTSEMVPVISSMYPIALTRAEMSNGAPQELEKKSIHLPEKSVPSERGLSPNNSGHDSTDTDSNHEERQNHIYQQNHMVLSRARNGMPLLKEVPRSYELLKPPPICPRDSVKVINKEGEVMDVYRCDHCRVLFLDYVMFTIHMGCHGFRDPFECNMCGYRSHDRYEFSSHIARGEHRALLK
Chain of IKZF3 (Q96SW2 whole entry): as the sequence (Q96SW2 whole entry) above
Chain of IKZF3 (Q16531 whole entry partner): as the sequence (Q16531 whole entry partner) above
Method in brief: as §1

[4] = target: GSPT1 (Homo sapiens (Human), UniProt P15170+Q96SW2); test: Western blot, substrate protein expression in hPBMC: GSPT1; format: cell-based; conditions: hPBMC, compound 500 nM, 24 hours, Western blot
Chain of GSPT1 (P15170 whole entry): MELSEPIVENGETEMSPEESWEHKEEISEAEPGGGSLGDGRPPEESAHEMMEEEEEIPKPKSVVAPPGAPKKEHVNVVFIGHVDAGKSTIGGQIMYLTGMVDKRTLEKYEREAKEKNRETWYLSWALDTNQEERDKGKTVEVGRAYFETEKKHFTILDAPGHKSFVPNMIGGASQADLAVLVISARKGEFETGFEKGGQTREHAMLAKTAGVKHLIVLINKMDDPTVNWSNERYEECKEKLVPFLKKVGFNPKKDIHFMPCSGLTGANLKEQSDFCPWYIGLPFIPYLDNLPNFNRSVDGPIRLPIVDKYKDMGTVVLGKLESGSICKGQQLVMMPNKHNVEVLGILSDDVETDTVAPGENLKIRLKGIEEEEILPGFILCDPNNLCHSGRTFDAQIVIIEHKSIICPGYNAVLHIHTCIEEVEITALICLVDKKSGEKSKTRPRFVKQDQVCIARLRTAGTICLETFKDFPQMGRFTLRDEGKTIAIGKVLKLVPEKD
Chain of GSPT1 (Q96SW2 whole entry): as the sequence (Q96SW2 whole entry) above
Chain of GSPT1 (Q16531 whole entry partner): as the sequence (Q16531 whole entry partner) above
Method in brief: as §1

[5] = system: CAL-62 (human thyroid carcinoma cells); test: Tumor cell proliferation inhibition, CCK-8; format: cell-based
Method in brief: (§2)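 IC50 values reflect reduced CCK-8 signal in cells given compound 24 h after plating, across ten 5-fold dilutions with 10 μM as the maximum.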

[6] = system: CCRF-CEM (human acute lymphoblastic leukemia T-cells); test: Tumor cell proliferation inhibition, CCK-8; format: cell-based
Method in brief: as §2

[7] = system: H146 cells (human small cell lung carcinoma cells); test: Tumor cell proliferation inhibition, CCK-8; format: cell-based
Method in brief: as §2

[8] = system: Jurkat cells (human T-cell leukemia cells); test: Tumor cell proliferation inhibition, CCK-8; format: cell-based
Method in brief: as §2

[9] = system: Kasumi-1 (human acute myeloid leukemia cells); test: Tumor cell proliferation inhibition, CCK-8; format: cell-based
Method in brief: as §2

[10] = system: MDA-MB-231 cells (human breast adenocarcinoma cells); test: Tumor cell proliferation inhibition, CCK-8; format: cell-based
Method in brief: as §2

[11] = system: MM.1R cells (dexamethasone-resistant human multiple myeloma cells); test: Tumor cell proliferation inhibition, CCK-8; format: cell-based
Method in brief: as §2

[12] = system: MM.1S cells (human multiple myeloma cells); test: Tumor cell proliferation inhibition, CCK-8; format: cell-based; conditions: MM1.S
Method in brief: as §2

[13] = system: TMD8 cells (human diffuse large B-cell lymphoma cells); test: Tumor cell proliferation inhibition, CCK-8; format: cell-based
Method in brief: as §2

[14] = CAL-62 cells, CCK-8, read-out: inhibitory activity (IC50, nM) CAL-62
[15] = CCRF-CEM cells, CCK-8, read-out: inhibitory activity (IC50, nM) CCRF-CEM
[16] = NCI-H146, H146 cells, CCK-8, read-out: inhibitory activity (IC50, nM) H146
[17] = Jurkat cells, CCK-8, read-out: inhibitory activity (IC50, nM) Jurkat
[18] = Kasumi-1 cells, CCK-8, read-out: inhibitory activity (IC50, nM) Kasumi-1
[19] = MDA-MB-231 cells, CCK-8, read-out: inhibitory activity (IC50, nM) MDA-MB-231
[20] = MM.1R cells, CCK-8, read-out: inhibitory activity (IC50, nM) MM.1R
[21] = MM.1S cells, CCK-8, read-out: inhibitory activity (IC50, nM) MM.1S
[22] = TMD8 cells, CCK-8, read-out: inhibitory activity (IC50, nM) TMD8

Chain of human Cereblon WT GST-tagged protein (Q96SW2 whole entry): as the sequence (Q96SW2 whole entry) above

IC50 [1] | IC50 [5, 14] | IC50 [6, 15] | IC50 [7, 16] | IC50 [8, 17] | IC50 [9, 18] | IC50 [10, 19] | IC50 [11, 20] | IC50 [12, 21] | IC50 [13, 22] | Structure (SMILES) | substrate protein remaining % IKZF1 [2] | substrate protein remaining % IKZF3 [3] | substrate protein remaining % GSPT1 [4] | other results
500 to 1000 nM | 1 to 10 nM | 1 to 10 nM | 50 to 100 nM | 10 to 50 nM | 10 to 50 nM | 10 to 50 nM | 1 to 10 nM | 1 to 10 nM | 50 to 100 nM | O=C1CCC(N2Cc3cc(CN4CCN(C(c5ccc(F)cc5)c5ccc(F)cc5)CC4)ccc3C2=O)C(=O)N1 (stereo not shown) [GT-03386, 3-(5-((4-(bis(4-fluorophenyl)methyl)piperazin-1-yl)methyl)-1-oxoisoindolin-2-yl)piperidine-2,6-dione] | A (A represents 0% ≤ substrate protein remaining % ≤ 50%) | A (A represents 0% ≤ substrate protein remaining % ≤ 50%) | A (A represents 0% ≤ substrate protein remaining % ≤ 50%) | 
< 500 nM | 1 to 10 nM | 1 to 10 nM | 10 to 50 nM | 10 to 50 nM | 1 to 10 nM | 10 to 50 nM | 10 to 50 nM | 1 to 10 nM | 10 to 50 nM | O=C1CCC(N2Cc3c(ccc(CN4CCN(C(c5ccc(F)cc5)c5ccc(F)cc5)CC4)c3F)C2=O)C(=O)N1 (stereo not shown) [GT-03564, 3-(5-((4-(bis(4-fluorophenyl)methyl)piperazin-1-yl)methyl)-4-fluoro-1-oxoisoindolin-2-yl)piperidine-2,6-dione] | A (A represents 0% ≤ substrate protein remaining % ≤ 50%) | A (A represents 0% ≤ substrate protein remaining % ≤ 50%) | A (A represents 0% ≤ substrate protein remaining % ≤ 50%) | 
500 to 1000 nM | 1 to 10 nM | < 1 nM | 10 to 50 nM | 1 to 10 nM | 1 to 10 nM | 10 to 50 nM | 1 to 10 nM | 1 to 10 nM | 100 to 500 nM | O=C1CCC(N2Cc3cc(CN4CCN(C(c5ccc(F)cc5)c5ccc(F)cc5)CC4)c(F)cc3C2=O)C(=O)N1 (stereo not shown) [GT-03698, 3-(5-((4-(bis(4-fluorophenyl)methyl)piperazin-1-yl)methyl)-6-fluoro-1-oxoisoindolin-2-yl)piperidine-2,6-dione] | A (A represents 0% ≤ substrate protein remaining % ≤ 50%) | A (A represents 0% ≤ substrate protein remaining % ≤ 50%) | A (A represents 0% ≤ substrate protein remaining % ≤ 50%) | 

Second part, the compound before the results:

Structure (SMILES) | IC50 [1] | IC50 [5, 14] | IC50 [6, 15] | IC50 [7, 16] | IC50 [8, 17] | IC50 [9, 18] | IC50 [10, 19] | IC50 [11, 20] | IC50 [12, 21] | IC50 [13, 22] | substrate protein remaining % IKZF1 [2] | substrate protein remaining % IKZF3 [3] | substrate protein remaining % GSPT1 [4] | other results
O=C1CCC(N2Cc3cc(CN4CCN(C(c5ccccc5)c5ccccc5)CC4)ccc3C2=O)C(=O)N1 (stereo not shown) [GT-03245, 3-(5-((4-benzhydrylpiperazin-1-yl)methyl)-1-oxoisoindolin-2-yl)piperidine-2,6-dione] | 500 to 1000 nM | < 1 nM | < 1 nM | 10 to 50 nM | 1 to 10 nM | < 1 nM | 1 to 10 nM | < 1 nM | 1 to 10 nM | 10 to 50 nM | A (A represents 0% ≤ substrate protein remaining % ≤ 50%) | A (A represents 0% ≤ substrate protein remaining % ≤ 50%) | A (A represents 0% ≤ substrate protein remaining % ≤ 50%) | 
O=C1CCC(N2Cc3c(ccc(CN4CCN(C(c5ccccc5)c5ccccc5)CC4)c3F)C2=O)C(=O)N1 (stereo not shown) [GT-03466, 3-(5-((4-benzhydrylpiperazin-1-yl)methyl)-4-fluoro-1-oxoisoindolin-2-yl)piperidine-2,6-dione] | < 500 nM | 1 to 10 nM | < 1 nM | 10 to 50 nM | 1 to 10 nM | 1 to 10 nM | 1 to 10 nM | 1 to 10 nM | 1 to 10 nM | 10 to 50 nM | A (A represents 0% ≤ substrate protein remaining % ≤ 50%) | A (A represents 0% ≤ substrate protein remaining % ≤ 50%) | A (A represents 0% ≤ substrate protein remaining % ≤ 50%) | 
O=C1CCC(N2Cc3cc(CN4CCN(C(c5ccccc5)c5ccccc5)CC4)c(F)cc3C2=O)C(=O)N1 (stereo not shown) [GT-03700, 3-(5-((4-benzhydrylpiperazin-1-yl)methyl)-6-fluoro-1-oxoisoindolin-2-yl)piperidine-2,6-dione] | 500 to 1000 nM | 1 to 10 nM | 1 to 10 nM | 10 to 50 nM | 1 to 10 nM | 1 to 10 nM | 1 to 10 nM | 1 to 10 nM | 1 to 10 nM | 10 to 50 nM | A (A represents 0% ≤ substrate protein remaining % ≤ 50%) | B (B represents substrate protein remaining % > 50%) | A (A represents 0% ≤ substrate protein remaining % ≤ 50%) | 
O=C1CCC(N2Cc3cc(CN4CCN(C(c5cccc(F)c5)c5cccc(F)c5)CC4)c(F)cc3C2=O)C(=O)N1 (stereo not shown) [GT-03701, 3-(5-((4-(bis(3-fluorophenyl)methyl)piperazin-1-yl)methyl)-6-fluoro-1-oxoisoindolin-2-yl)piperidine-2,6-dione] | 500 to 1000 nM | 1 to 10 nM | 1 to 10 nM | 50 to 100 nM | 10 to 50 nM | 10 to 50 nM | 10 to 50 nM | 1 to 10 nM | 1 to 10 nM | 100 to 500 nM | A (A represents 0% ≤ substrate protein remaining % ≤ 50%) | A (A represents 0% ≤ substrate protein remaining % ≤ 50%) | A (A represents 0% ≤ substrate protein remaining % ≤ 50%) | 
Nc1cccc2c1CN(C1CCC(=O)NC1=O)C2=O (stereo not shown) [lenalidomide, reference compound] |  |  |  |  |  |  |  |  |  |  |  |  |  | IC50 ([5]; CAL-62, read-out: inhibitory activity (IC50, nM) CAL-62): > 10000 nM; IC50 ([6]; CCRF-CEM, read-out: inhibitory activity (IC50, nM) CCRF-CEM): > 10000 nM; IC50 ([7]; NCI-H146, read-out: inhibitory activity (IC50, nM) H146): > 10000 nM; IC50 ([8]; Jurkat, read-out: inhibitory activity (IC50, nM) Jurkat): > 10000 nM; IC50 ([9]; Kasumi 1, read-out: inhibitory activity (IC50, nM) Kasumi-1): > 10000 nM; IC50 ([10]; MDA-MB-231, read-out: inhibitory activity (IC50, nM) MDA-MB-231): > 10000 nM; IC50 ([11]; MM.1R, read-out: inhibitory activity (IC50, nM) MM.1R): > 10000 nM; IC50 ([12]; read-out: inhibitory activity (IC50, nM) MM.1S): > 10000 nM; IC50 ([13]; TMD8, read-out: inhibitory activity (IC50, nM) TMD8): > 10000 nM
Nc1cccc2c1C(=O)N(C1CCC(=O)NC1=O)C2=O (stereo not shown) [pomalidomide, reference compound] |  | > 10000 nM | 5000 to 10000 nM | > 10000 nM | > 10000 nM | > 10000 nM | > 10000 nM | > 10000 nM | 500 to 1000 nM | 5000 to 10000 nM |  |  |  | 
